# In patent publication US8545820B2, “Use of titanium-based materials as bactericides” (Savannah River Nuclear Solutions, LLC, priority 2010, dated 2013):
# Experiments:
# bacteria in Table 1 = assay: Planktonic bacterial growth suppression, statements pooled over the species tested; type: cell-based, oral bacteria
# Method: (§1) Set forth in Table 1 are the species of oral bacteria which were evaluated. These species are atiologic agents and periodontal disease, gingivitis, or caries that would lend themselves to treatment with a solid-phase metal titanate compound. […] All bacteria were cultured from frozen stocks expanded from ATCC cultures; the absence of contamination was verified at each thaw via Gram stain. All bacteria were grown over 24 h to mid-log phase before inoculating experimental cultures.
# One hundred μL of the initial culture was plated in 96 well plate format number of bacterial cells present in a given volume of culture was determined by correlating OD reading of bacterial culture at 595 nm to the number of cells present. […] Prior to exposing bacteria to metal-titanate compounds, appropriate dilutions of each bacterial species were made so that metal-titanate compounds are consistently exposed to 3.56E9 bacteria for all species tested. […]
# For metal ions alone, 5 μL of a concentrated stock solution of the respective metal salt were added to 95 μL of the bacterial cultures (n=8 per condition). […] After 24 h, the cultures were thoroughly mixed prior to reading the OD. […]
# The initial and final mean and standard deviation OD readings were plotted as a function of concentration. […]
# [1] = tested on: Prevotella intermedia (Pi); assay: Planktonic bacterial growth suppression (OD at 595 nm, 24 h exposure); type: cell-based; conditions: concentrations ≦1500 μM
# Method: as §1
# (§2) One hundred μL of the initial culture was plated in 96 well plate format number of bacterial cells present in a given volume of culture was determined by correlating OD reading of bacterial culture at 595 nm to the number of cells present. […] Prior to exposing bacteria to metal-titanate compounds, appropriate dilutions of each bacterial species were made so that metal-titanate compounds are consistently exposed to 3.56E9 bacteria for all species tested. This strategy assured the same cell to titanate particle ratio, allowed repeatability, and allowed log growth phase throughout the 24 h time when bacteria were exposed to the titanates. A 24 h incubation time with titanates was chosen to maximize the exposure to the titanates without risking a culture deteriorating from overgrowth.
# (§3) For metal ions alone, 5 μL of a concentrated stock solution of the respective metal salt were added to 95 μL of the bacterial cultures (n=8 per condition). […] The cultures were mixed to ensure contact between the titanates and the bacteria. MST and APT suspensions were thoroughly mixed prior to addition to ensure accurate transfer of the particles. […] Titanate-bacterial cultures were incubated for 24 h under the conditions appropriate for each type of bacterium. After 24 h, the cultures were thoroughly mixed prior to reading the OD. Control cultures for experiments included cultures of media alone (no titanates or bacteria), titanates in media (no bacteria), and bacteria alone (no titanates). […] All experiments were repeated in triplicate to assure reproducibility.
# (§4) The initial and final mean and standard deviation OD readings were plotted as a function of concentration. The titanate only controls were also plotted as a baseline. Cultures were statistically compared (two-sided Student's t-tests, α=0.05) to determine significant effects of the titanates (with or without added metal) on bacterial growth.
# (§5) A similar strategy was used to assess the antibacterial action of the metal ions alone, so that the relative efficacy of the titanates alone and titanate metal complexes could be compared to the metal ions alone. The delivery potential of metal ion from the titanate-metal complexes was determined by calculating the total metal mass complexed with the titanates at each titanate particle concentration.
# [2] = tested on: Actinomyces naeslundii (An); assay: as above; type: cell-based
# Method: as §1, §2, §3, §4, §5
# mammalian cells = conditions: metal ion alone; based on previous reports; cited from earlier work
# [3] = Aqueous solubility of the metal chloride salt; type: physicochemical
structure (smiles),measurement,setting,value
"O.O.O.[Cl][Au-]([Cl])([Cl])[Cl].[H+] [Au(III), HAuCl4•3H2O]",Relative potency among the metal ions alone,"bacteria in Table 1; metal ions alone, excepting Pt(II)",most potent
same,Effect of metal ion alone on Pi,[1],no observable effect
same,An growth suppression by metal ion alone,[2]; >10 μM,completely suppressed
same,Inhibitory concentration for mammalian cells,mammalian cells,60 to 115 µM
"[Cl][Pd][Cl] [Pd(II), PdCl2]",An growth suppression by metal ion alone,[2]; >1000 μM,approximately 30%
same,Inhibitory concentration for mammalian cells,mammalian cells,100 to 300 µM
"[Cl][Pt][Cl] [Pt(II), PtCl2]",Aqueous solubility of the chloride salt,[3],limited aqueous solubility
"[Cl][Pt][Cl] [Pt(IV), PtCl2]",An growth suppression by metal ion alone,[2]; concentrations ≦750 μM,not suppressed
same,Inhibitory concentration for mammalian cells,mammalian cells,25 µM
CC[C@H]1OC(=O)[C@H](C)[C@@H](O[C@H]2C[C@@](C)(OC)[C@@H](O)[C@H](C)O2)[C@H](C)[C@@H](O[C@@H]2O[C@H](C)C[C@H](N(C)C)[C@H]2O)[C@](C)(O)C[C@@H](C)C(=O)[C@H](C)[C@@H](O)[C@]1(C)O [erythromycin],Bacteriostatic control (Bac-Em),"bacteria in Table 1; bacteria with erythromycin 100 μg/mL, no titanates",behaved as expected
